Read-outs that look alike come from different tables or passages of the source.
Experiments:
Dopamine D2 = molecular target: T1, Dopamine D2 (Homo sapiens, UniProt P14416); assay: Cross screening: Dopamine D2 Agonist; format: biochemical
T1 construct: purchased GSK enhanced cross-screening panel (in-house)

PI3K-gamma = molecular target: T2, PI3K-gamma (Homo sapiens, UniProt P48736); assay: Cross screening: PI3K-gamma inhibitor; format: biochemical
T2 construct: purchased GSK enhanced cross-screening panel (in-house)

PBRM1 BD5 = molecular target: T3, PBRM1 BD5 (Homo sapiens, UniProt Q86U86); assay: BROMOscan PBRM1 BD5; format: binding
T3 construct: PBRM1 BD5; purchased DiscoverX
Experimental: (§1) The BRD4 BD1/BD2 TR-FRET assay had been used routinely for this optimization work, and in order to better understand the BET BD1 domain selectivity profile, 31 was tested in TR-FRET BRD2, BRD3, and BRDT assays.
(§2) [52] BROMOscan recombinant protein binding assays were carried out at DiscoverX. (accessed April 4, 2023).

K1 = assay: Cross screening: K1 Agonist; format: biochemical
BRD3 BD2 = BRD3 BD2 (Homo sapiens, UniProt Q15059); assay: BROMOscan BRD3 BD2; format: binding
Experimental: as §1, §2

BRDT BD2 = BRDT BD2 (Homo sapiens, UniProt Q58F21); assay: BRDT BD2 TR-FRET assay; format: binding
Experimental: as §1
(§3) All TR-FRET and hWB cytokine assays have been described previously.[54]

BSEP = BSEP (Homo sapiens, UniProt O95342); assay: Cross screening: BSEP inhibitor
5-HT2B = molecular target: T4, 5-HT2B (Homo sapiens, UniProt P41595); assay: Cross screening: 5-HT2B Agonist; format: biochemical
T4 construct: purchased GSK enhanced cross-screening panel (in-house)

Alpha 2C Adrenoceptor = molecular target: T5, Alpha 2C Adrenoceptor (Homo sapiens, UniProt P18825); assay: Cross screening: Alpha 2C Adrenoceptor agonist; format: biochemical
T5 construct: purchased GSK enhanced cross-screening panel (in-house)

non-BET bromodomains = assay: BROMOscan non-BET bromodomain panel; format: binding, human
Experimental: as §1, §2

[1] = test system: pharmacologically relevant off-targets; assay: GSK enhanced cross-screening panel (whole panel); details: no activity at the concentrations tested
M2 (CHRM2) = molecular target: T6, M2 (CHRM2) (Homo sapiens, UniProt P08172); assay: Cross screening: M2 (CHRM2) antagonist; format: biochemical
T6 construct: purchased GSK enhanced cross-screening panel (in-house)

AR = molecular target: T7, AR (Homo sapiens, UniProt P10275); assay: Cross screening: AR Agonist; format: biochemical
T7 construct: purchased GSK enhanced cross-screening panel (in-house)

5-HT3 = molecular target: T8, 5-HT3 (Homo sapiens, UniProt P46098); assay: Cross screening: 5-HT3 Agonist; format: biochemical
T8 construct: purchased GSK enhanced cross-screening panel (in-house)

[2] = molecular target: T9, Aryl Hydrocarbon Receptor (Homo sapiens, UniProt P35869); assay: Cross screening: Aryl Hydrocarbon Receptor; format: biochemical
T9 construct: purchased GSK enhanced cross-screening panel (in-house)

PXR = PXR (Homo sapiens, UniProt O75469); assay: Cross screening: PXR Human Agonist
BRD4 BD1 = molecular target: T10, BRD4 BD1 (Homo sapiens, UniProt O60885); assay: BROMOscan BRD4 BD1; format: binding
T10 construct: BRD4 BD1; purchased DiscoverX
Experimental: as §1, §2

CREBBP = molecular target: T11, CREBBP (Homo sapiens, UniProt Q92793); assay: BROMOscan CREBBP; format: binding
T11 construct: ≥2000-fold selectivity over all 20 non-BET bromodomains tested; purchased DiscoverX
Experimental: as §1, §2

PCAF = molecular target: T12, PCAF (Homo sapiens, UniProt Q92831); assay: BROMOscan PCAF; format: binding
T12 construct: ≥2000-fold selectivity over all 20 non-BET bromodomains tested; purchased DiscoverX
Experimental: as §1, §2

BRDT BD1 = BRDT BD1 (Homo sapiens, UniProt Q58F21); assay: BROMOscan BRDT BD1; format: binding
Experimental: as §1, §2

BRD2 BD1 = BRD2 BD1 (Homo sapiens, UniProt P25440); assay: BROMOscan BRD2 BD1; format: binding
Experimental: as §1, §2

MRGPRX2 = molecular target: T13, MRGPRX2 (Homo sapiens, UniProt Q96LB1); assay: Cross screening: MRGPRX2 Agonist; format: biochemical
T13 construct: purchased GSK enhanced cross-screening panel (in-house)

FALZ = molecular target: T14, FALZ (Homo sapiens, UniProt Q12830); assay: BROMOscan FALZ; format: binding
T14 construct: ≥2000-fold selectivity over all 20 non-BET bromodomains tested; purchased DiscoverX
Experimental: as §1, §2

BRD2 BD2 = molecular target: T15, BRD2 BD2 (Homo sapiens, UniProt P25440); assay: BROMOscan BRD2 BD2; format: binding
T15 construct: BRD2 BD2; purchased DiscoverX
Experimental: as §1, §2

MCP-1 = assay: LPS-stimulated human whole blood (hWB) MCP-1 release assay; format: cell-based
From the text: The utility of a chemical probe in target validation is directly related to its quality, with important publications detailing requirements to aid researchers.[36]−[38] […] It was accepted that selectivity would be judged initially through a mutant BRD4 TR-FRET assay and would likely shift depending on the protein construct and assay format. […] Previous studies have shown that BET BD1 inhibition is sufficient to inhibit in vitro production of MCP-1 in LPS-stimulated hWB and, as such, served as a relevant measure of cellular target engagement and, concomitantly, proof of cellular permeability.[12],[39] Selectivity over other human bromodomains outside of the BET family, known collectively as non-BET bromodomains, was also required,[40] with a ≥ 100-fold selectivity window targeted. To ensure the molecules remained within developable chemical space, a target property forecast index (PFI) as defined by chromLogDpH7.4 + number of aromatic rings ≤6 was set.[41]
To understand cellular target engagement, 21 was tested in an LPS-stimulated hWB assay measuring inhibition of the inflammatory mediator MCP-1 secretion.
as §3

LCK = molecular target: T16, LCK (Homo sapiens, UniProt P06239); assay: Cross screening: LCK inhibitor; format: biochemical
T16 construct: purchased GSK enhanced cross-screening panel (in-house)

PBRM1 BD2 = molecular target: T17, PBRM1 BD2 (Homo sapiens, UniProt Q86U86); assay: BROMOscan PBRM1 BD2; format: binding
T17 construct: PBRM1 BD2; purchased DiscoverX
Experimental: as §1, §2

M1 [3] = molecular target: T18, M1 (Homo sapiens, UniProt P11229); assay: Cross screening: M1 antagonist; format: biochemical
T18 construct: purchased GSK enhanced cross-screening panel (in-house)

CYP3A4 = CYP3A4 (Homo sapiens, UniProt P08684); assay: Cross screening: CYP3A4 inhibition
Dopamine 2 (D2) = molecular target: T19, Dopamine 2 (D2) (Homo sapiens, UniProt P14416); assay: Cross screening: Dopamine 2 (D2) Antagonist; format: biochemical
T19 construct: purchased GSK enhanced cross-screening panel (in-house)

CECR2 = molecular target: T20, CECR2 (Homo sapiens, UniProt Q9BXF3); assay: BROMOscan CECR2; format: binding
T20 construct: ≥2000-fold selectivity over all 20 non-BET bromodomains tested; purchased DiscoverX
Experimental: as §1, §2

M1 [4] = molecular target: T18, M1; assay: Cross screening: M1 Agonist; format: biochemical
GCN5 = molecular target: T21, GCN5 (Homo sapiens, UniProt Q92830); assay: BROMOscan GCN5; format: binding
T21 construct: ≥2000-fold selectivity over all 20 non-BET bromodomains tested; purchased DiscoverX
Experimental: as §1, §2

BRD2 BD1, sequence (P25440 74-180 limits assumed): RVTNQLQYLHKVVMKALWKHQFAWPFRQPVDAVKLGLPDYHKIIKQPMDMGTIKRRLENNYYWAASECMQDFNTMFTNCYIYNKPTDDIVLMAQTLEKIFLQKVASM
T18 sequence (P11229 whole entry): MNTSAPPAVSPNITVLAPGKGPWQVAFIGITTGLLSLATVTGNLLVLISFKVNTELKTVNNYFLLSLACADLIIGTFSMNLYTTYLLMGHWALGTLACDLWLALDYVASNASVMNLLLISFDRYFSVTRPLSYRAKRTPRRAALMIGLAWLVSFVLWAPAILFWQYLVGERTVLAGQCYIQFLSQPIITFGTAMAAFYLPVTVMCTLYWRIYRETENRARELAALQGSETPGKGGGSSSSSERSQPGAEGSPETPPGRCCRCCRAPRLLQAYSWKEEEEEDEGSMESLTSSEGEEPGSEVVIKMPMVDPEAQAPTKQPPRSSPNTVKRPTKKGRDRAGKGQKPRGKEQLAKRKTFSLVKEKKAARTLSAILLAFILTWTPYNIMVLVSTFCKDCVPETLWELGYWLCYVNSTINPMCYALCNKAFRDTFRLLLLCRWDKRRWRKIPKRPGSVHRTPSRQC
T7 sequence (P10275 whole entry): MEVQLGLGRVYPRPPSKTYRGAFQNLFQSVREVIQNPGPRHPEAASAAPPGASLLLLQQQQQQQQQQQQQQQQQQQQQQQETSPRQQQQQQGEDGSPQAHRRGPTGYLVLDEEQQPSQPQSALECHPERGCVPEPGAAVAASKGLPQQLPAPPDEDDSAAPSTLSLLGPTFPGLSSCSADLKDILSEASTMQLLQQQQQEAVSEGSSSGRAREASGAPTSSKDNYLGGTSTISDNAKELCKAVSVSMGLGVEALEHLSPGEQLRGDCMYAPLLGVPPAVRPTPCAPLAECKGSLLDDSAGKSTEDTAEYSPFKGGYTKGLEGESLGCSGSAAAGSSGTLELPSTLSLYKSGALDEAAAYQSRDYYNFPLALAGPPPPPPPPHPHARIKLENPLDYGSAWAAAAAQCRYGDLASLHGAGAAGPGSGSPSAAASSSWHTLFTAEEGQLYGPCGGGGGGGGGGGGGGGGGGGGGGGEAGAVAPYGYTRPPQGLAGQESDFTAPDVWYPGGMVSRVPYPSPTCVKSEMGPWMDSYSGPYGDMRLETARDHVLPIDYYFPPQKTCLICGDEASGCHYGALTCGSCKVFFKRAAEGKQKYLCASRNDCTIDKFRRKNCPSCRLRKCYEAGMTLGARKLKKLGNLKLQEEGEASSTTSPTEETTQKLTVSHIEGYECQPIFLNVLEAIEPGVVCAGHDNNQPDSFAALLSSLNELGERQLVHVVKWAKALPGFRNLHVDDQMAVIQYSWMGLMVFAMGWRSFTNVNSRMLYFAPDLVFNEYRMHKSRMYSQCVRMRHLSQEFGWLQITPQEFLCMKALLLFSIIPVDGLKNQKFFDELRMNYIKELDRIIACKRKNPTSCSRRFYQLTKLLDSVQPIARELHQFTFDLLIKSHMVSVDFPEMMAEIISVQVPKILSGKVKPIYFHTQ
T3 sequence (Q86U86 653-763 limits assumed): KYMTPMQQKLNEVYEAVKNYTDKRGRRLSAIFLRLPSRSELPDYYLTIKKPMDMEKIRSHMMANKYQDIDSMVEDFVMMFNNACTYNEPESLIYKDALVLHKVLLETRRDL
CYP3A4, sequence (P08684 whole entry): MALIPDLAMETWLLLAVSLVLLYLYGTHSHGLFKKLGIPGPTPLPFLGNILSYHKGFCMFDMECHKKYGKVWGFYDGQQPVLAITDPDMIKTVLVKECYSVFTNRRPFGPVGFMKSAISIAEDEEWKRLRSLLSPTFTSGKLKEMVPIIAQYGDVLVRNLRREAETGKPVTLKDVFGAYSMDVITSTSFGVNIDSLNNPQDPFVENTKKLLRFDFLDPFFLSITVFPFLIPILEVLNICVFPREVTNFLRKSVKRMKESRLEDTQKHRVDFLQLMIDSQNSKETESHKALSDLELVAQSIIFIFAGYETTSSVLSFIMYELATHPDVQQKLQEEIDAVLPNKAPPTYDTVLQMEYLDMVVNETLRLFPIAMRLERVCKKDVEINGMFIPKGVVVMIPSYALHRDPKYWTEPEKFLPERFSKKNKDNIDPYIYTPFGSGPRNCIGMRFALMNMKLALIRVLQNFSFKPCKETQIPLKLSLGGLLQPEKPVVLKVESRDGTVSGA
T12 sequence (Q92831 723-827 limits assumed): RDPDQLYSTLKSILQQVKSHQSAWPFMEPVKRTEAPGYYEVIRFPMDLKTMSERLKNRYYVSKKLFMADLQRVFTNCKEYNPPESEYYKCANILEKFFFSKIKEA
T8 sequence (P46098 24-478): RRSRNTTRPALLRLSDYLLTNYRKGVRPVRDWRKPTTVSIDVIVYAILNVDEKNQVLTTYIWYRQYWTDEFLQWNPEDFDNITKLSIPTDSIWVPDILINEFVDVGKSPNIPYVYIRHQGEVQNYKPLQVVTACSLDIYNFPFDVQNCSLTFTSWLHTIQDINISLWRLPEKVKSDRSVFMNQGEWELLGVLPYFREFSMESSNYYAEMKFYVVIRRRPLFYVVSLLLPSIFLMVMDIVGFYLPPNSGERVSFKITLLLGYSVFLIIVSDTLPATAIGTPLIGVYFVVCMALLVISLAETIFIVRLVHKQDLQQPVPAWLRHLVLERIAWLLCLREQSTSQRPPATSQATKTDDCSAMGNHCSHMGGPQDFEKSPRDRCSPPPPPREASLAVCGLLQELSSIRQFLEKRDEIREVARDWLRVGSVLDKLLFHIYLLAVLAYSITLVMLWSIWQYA
PXR, sequence (O75469 whole entry): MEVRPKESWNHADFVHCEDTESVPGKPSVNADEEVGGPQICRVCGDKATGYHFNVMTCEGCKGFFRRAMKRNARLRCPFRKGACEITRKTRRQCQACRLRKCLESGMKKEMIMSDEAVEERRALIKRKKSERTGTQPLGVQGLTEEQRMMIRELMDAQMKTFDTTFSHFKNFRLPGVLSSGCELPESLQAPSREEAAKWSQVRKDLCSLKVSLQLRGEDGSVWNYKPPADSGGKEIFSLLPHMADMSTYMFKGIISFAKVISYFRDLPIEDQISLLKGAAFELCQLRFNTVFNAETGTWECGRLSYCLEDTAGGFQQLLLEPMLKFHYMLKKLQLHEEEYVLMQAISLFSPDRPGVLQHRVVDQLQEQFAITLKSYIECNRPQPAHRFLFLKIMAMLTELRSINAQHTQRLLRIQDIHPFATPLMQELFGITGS
BRD3 BD2, sequence (Q15059 306-415 limits assumed): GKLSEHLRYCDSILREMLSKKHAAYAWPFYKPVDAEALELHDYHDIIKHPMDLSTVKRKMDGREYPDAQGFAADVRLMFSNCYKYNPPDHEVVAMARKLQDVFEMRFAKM
T6 sequence (P08172 whole entry): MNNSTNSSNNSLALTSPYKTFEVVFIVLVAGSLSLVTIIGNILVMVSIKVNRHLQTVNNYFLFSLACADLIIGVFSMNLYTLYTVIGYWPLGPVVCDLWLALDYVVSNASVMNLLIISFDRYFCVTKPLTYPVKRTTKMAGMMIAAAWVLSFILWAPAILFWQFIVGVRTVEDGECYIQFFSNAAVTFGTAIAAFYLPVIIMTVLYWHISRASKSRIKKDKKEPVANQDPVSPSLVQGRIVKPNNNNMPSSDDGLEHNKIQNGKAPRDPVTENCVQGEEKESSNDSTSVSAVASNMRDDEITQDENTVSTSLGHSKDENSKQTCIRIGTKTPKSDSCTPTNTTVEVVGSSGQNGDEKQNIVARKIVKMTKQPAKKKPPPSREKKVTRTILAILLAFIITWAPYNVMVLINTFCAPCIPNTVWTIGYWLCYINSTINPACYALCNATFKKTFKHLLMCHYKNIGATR
T2 sequence (P48736 whole entry): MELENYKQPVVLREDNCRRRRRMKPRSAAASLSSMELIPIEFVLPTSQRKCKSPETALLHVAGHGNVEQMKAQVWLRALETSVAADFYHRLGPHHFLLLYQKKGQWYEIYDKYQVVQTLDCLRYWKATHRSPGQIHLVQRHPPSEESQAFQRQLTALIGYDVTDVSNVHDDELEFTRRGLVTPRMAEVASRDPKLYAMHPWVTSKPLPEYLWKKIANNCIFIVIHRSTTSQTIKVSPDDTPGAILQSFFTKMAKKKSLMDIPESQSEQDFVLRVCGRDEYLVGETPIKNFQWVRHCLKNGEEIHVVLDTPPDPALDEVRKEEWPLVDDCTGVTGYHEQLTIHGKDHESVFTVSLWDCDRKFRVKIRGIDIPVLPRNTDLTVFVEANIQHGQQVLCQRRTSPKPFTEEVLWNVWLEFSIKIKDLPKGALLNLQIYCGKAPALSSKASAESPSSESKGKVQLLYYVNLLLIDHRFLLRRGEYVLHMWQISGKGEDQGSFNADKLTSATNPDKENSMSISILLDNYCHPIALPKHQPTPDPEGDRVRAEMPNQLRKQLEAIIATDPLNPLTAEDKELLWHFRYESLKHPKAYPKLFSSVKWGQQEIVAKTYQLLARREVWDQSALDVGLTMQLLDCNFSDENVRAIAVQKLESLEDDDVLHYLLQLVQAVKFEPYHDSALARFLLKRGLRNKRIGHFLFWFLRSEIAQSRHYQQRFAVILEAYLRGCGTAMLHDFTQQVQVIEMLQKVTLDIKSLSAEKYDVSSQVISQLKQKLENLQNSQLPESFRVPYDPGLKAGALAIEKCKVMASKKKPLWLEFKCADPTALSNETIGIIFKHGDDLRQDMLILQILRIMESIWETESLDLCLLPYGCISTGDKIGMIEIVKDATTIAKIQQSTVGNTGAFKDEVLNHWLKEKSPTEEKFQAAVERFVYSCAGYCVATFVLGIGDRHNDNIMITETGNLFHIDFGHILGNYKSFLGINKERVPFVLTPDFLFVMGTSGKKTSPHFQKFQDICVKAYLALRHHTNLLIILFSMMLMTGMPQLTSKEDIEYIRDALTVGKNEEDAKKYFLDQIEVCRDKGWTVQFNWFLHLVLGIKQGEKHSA
T11 sequence (Q92793 1085-1192 limits assumed): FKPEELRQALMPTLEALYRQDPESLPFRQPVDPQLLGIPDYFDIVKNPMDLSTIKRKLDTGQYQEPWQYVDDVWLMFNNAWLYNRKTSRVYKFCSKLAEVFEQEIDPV

Cc1cc(-c2nc3ccccc3n2C[C@@H]2CCCN(C(=O)C3CCN(C(C)C)CC3)C2)cn(C)c1=O [Compound 31, (S)-5-(1-((1-(1-Isopropylpiperidine-4-carbonyl)piperidin-3-yl)methyl)-1H-benzo [d]imidazole-2-yl)-1,3-dimethylpyridin-2(1H)-one]
pXC50 Dopamine D2 Agonist (Dopamine D2): < 4.0
pXC50 PI3K-gamma inhibitor (PI3K-gamma): < 4.5
Kd (PBRM1 BD5): > 31.6 µM
pXC50 K1 Agonist (K1): < 4.0
BROMOscan pKd BRD3 BD2 (BRD3 BD2): 5.8
BRDT BD2 TR-FRET pIC50 (BRDT BD2): 4.5
pXC50 BSEP inhibitor (BSEP): < 3.7
pXC50 5-HT2B Agonist (5-HT2B): < 4.0
pXC50 Alpha 2C Adrenoceptor agonist (Alpha 2C Adrenoceptor): < 4.0
selectivity over all non-BET bromodomains and broader liability targets tested (non-BET bromodomains): ≥ 1200 fold
BROMOscan pKd 20 non-BET bromodomains (non-BET bromodomains; 20 non-BET bromodomains other than EP300): ≤4.8
fold selectivity over 20 non-BET bromodomains (non-BET bromodomains; BROMOscan): ≥2000 fold
XC50 in enhanced cross-screening panel [1]: > 25 µM
pXC50 in enhanced cross-screening panel [1]: < 4.6
pXC50 M2 (CHRM2) antagonist (M2 (CHRM2)): < 4.3
pXC50 AR Agonist (AR): < 4.0
pXC50 5-HT3 Agonist (5-HT3): < 4.3
pXC50 Aryl Hydrocarbon Receptor [2]: < 4.0
pXC50 PXR Human Agonist (PXR): < 4.3
BROMOscan pKd BRD4 BD1 (BRD4 BD1): 8.1
fold selectivity BRD4 BD1 over BD2 (BRD4 BD1; BROMOscan): 316 fold
Kd (CREBBP): 20 µM
Kd (PCAF): > 31.6 µM
BROMOscan pKd BRDT BD1 (BRDT BD1): 8.1
fold selectivity BRDT BD1 over BD2 (BRDT BD1; BROMOscan): 400 fold
BROMOscan pKd BRD2 BD1 (BRD2 BD1): 8.5
fold selectivity BRD2 BD1 over BD2 (BRD2 BD1; BROMOscan): 1000 fold
pXC50 MRGPRX2 Agonist (MRGPRX2): < 4.0
Kd (FALZ): > 31.6 µM
BROMOscan pKd BRD2 BD2 (BRD2 BD2): 5.5
IC50 (MCP-1; Homo sapiens, read-out: hWB MCP-1 IC50): 0.126 µM
IC50 (MCP-1; LPS-stimulated human whole blood, read-out: hWB MCP-1 pIC50 (converted)): 0.126 µM
pXC50 LCK inhibitor (LCK): < 4.5
Kd (PBRM1 BD2): > 31.6 µM
pXC50 M1 antagonist (M1 [3]): < 4.3
pXC50 CYP3A4 inhibition (CYP3A4): 4.1
pXC50 Dopamine 2 (D2) Antagonist (Dopamine 2 (D2)): < 4.0
Kd (CECR2): > 31.6 µM
pXC50 M1 Agonist (M1 [4]): < 4.3
Kd (GCN5): > 31.6 µM

Reference: publication PMC10726358 (Journal of Medicinal Chemistry, 2023)
